Consider three compounds from paper PMC9486129, “An evolutionary divergent thermodynamic brake in ZAP-70 fine-tunes the kinetic proofreading in T cells” (The Journal of Biological Chemistry, 2022).

Each structure is given as a SMILES string. Changes are numbered by the printed parent chain. Several values for one entry are separate records, joined by “and”; a condition that tells them apart may be missing. Equal values may be shown once. Where a SMILES comes first, the peptide text is derived from it. [ ]: non-standard residue; d: D form. pY = N[C@@H](Cc1ccc(OP(=O)(O)O)cc1)C(=O)O

The target of assay [1] is T1, tSH2R192A of ZAP-70 (Homo sapiens, UniProt P43403).
T1 sequence (P43403 1-256 R190A): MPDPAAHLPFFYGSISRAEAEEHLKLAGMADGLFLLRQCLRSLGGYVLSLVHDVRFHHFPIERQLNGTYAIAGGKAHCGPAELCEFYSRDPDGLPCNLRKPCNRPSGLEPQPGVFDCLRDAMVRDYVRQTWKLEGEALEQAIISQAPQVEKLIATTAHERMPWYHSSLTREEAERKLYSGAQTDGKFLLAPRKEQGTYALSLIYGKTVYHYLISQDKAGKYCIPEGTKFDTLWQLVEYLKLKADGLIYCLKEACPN
The assay is described as follows: Isothermal titration calorimetry, ZAP-70 tSH2R192A (C-SH2 mutant).
Description: We probed Kd1 and Kd1∗ by fluorescence spectroscopy and Kd2 and Kd1∗ by ITC. To probe the Kd2 , we used ^tSH2R190A mutant that impairs phosphotyrosine binding to C-SH2 PBP (Figs. 1E and S1F).
ITC studies were carried out using Malvern-PEAQ_ITC at 20 °C. […] The Kd , ΔH, and ΔS were fitted into two-site sequential fit using ORIGIN as described previously ([33]). In the ITC experiments with C-SH2 domain mutant (R190A), the protein was buffer exchanged to 20 mM Hepes pH 8.2, 150 mM NaCl, and 5 mM β-mercaptoethanol.

The target of assay [2] is T2, Syk tSH2 domain (Homo sapiens, UniProt P43405).
T2 construct: Syk tSH2 (7–263), cloned in pGEX6P1 vector; GST (N, cleaved yes); host or cells: E. coli BL21(DE3)
Description: Steady-state intrinsic tryptophan fluorescence titration, Syk tSH2. It counts as binding. The conditions noted are these: 25 °C, 0.5 μM tSH2, SD from three independent experiments. Here is the method: (§1) The dissociation constant ( Kd ) was derived by fitting the normalized intensity (F0/F) versus ligand concentration using the following equation: F0/F=Bmax∗X^nH/(Kd^nH+X^nH) where F0 and F is fluorescence intensity in absence and presence of ligand, respectively. Bmax is the maximum binding, and nH is the Hill coefficient. The Hill coefficient (nH) was also determined from Hill plot ([70]).

The target in assay [3] is T3, tSH2 domain of ZAP-70 (Homo sapiens, UniProt P43403).
T3 construct: ZAP-70 tSH2 WT (1–256), cloned in pSKB2 vector; made in house; host or cells: E. coli BL21(DE3)
T3 sequence (P43403 1-256): T1 sequence (P43403 1-256 R190A) with A190R
The assay is described as follows: Steady-state intrinsic tryptophan fluorescence titration, ZAP-70 tSH2 wild type. In kind it is binding. Here is the method: as §1

The target in assay [4] is T4, ZAP-70 tSH2 domain (Homo sapiens, UniProt P43403).
T4 construct: ZAP-70 tSH2 WT (1–256), cloned in pSKB2 vector; made in house; host or cells: E. coli BL21(DE3)
T4 sequence (P43403 1-256): T1 sequence (P43403 1-256 R190A) with A190R
Description: Stopped-flow fluorescence binding kinetics, ZAP-70 tSH2 wild type. The conditions noted are these: 10 °C. How it is done:
We observed that the fluorescence intensity decay in two steps, fast (<200 ms) and slow (>20 s) (Fig. 3A). […] All kinetic data were first normalized against the highest intensity and then subtracted by the blank (protein only sample) (Fig. 3, A and B) and fitted to a one-site association kinetics (Table 1).
The change in fluorescence intensity was measured at λex 290 nm, λem 350 nm, and 10 °C ([71]). […] Each transient was measured over 200s (for slow kinetics) or 1s (for fast kinetics), interval with 1500 and 101 time points, respectively. For each sample, a blank dataset was recorded by measuring the change in intensity for protein only. Each data set was normalized against the maximum intensity observed for the respective sample at time 0. The normalized sample was further corrected by blank subtraction. The observed rate (kobs) was derived by fitting the change in intensity with respect to time by fitting to association kinetics equation implemented in Prism. Y=Y0+(Ymax−Y0)(1−e^[…]) where, Y0 is the intensity at time 0, Ymax is the maximum intensity, k is rate constant.

Regarding `CC(C)C[C@H](NC(=O)[C@H](CC(N)=O)NC(=O)[C@H](CC(C)C)NC(=O)[C@H](CCC(=O)O)NC(=O)[C@H](CC(N)=O)NC(=O)[C@H](Cc1ccc(OP(=O)(O)O)cc1)NC(=O)[C@H](CC(C)C)NC(=O)[C@H](CCC(N)=O)NC(=O)[C@@H](N)CC(N)=O)C(=O)NCC(=O)N[C@@H](CCCNC(=N)N)C(=O)N[C@@H](CCCNC(=N)N)C(=O)N[C@@H](C)C(=O)N[C@@H](CCC(=O)O)C(=O)N[C@@H](Cc1ccc(OP(=O)(O)O)cc1)C(=O)N[C@@H](CC(=O)O)C(=O)N[C@H](C(=O)N[C@@H](CC(C)C)C(=O)N[C@@H](CC(=O)O)C(=O)O)C(C)C` [ITAM-Y2P-ζ1 E13A], the Kd in assay [1] is 9.8 ± 0.75 µM.
In the case of `CC(C)C[C@H](NC(=O)CNC(=O)[C@@H](N)CC(=O)O)C(=O)N[C@@H](Cc1ccc(OP(=O)(O)O)cc1)C(=O)N[C@@H](CCC(N)=O)C(=O)NCC(=O)N[C@@H](CC(C)C)C(=O)N[C@@H](CO)C(=O)N[C@H](C(=O)N[C@@H](C)C(=O)N[C@H](C(=O)N[C@@H](CCCCN)C(=O)N[C@@H](CC(=O)O)C(=O)N[C@H](C(=O)N[C@@H](Cc1ccc(OP(=O)(O)O)cc1)C(=O)N[C@@H](CC(=O)O)C(=O)N[C@@H](C)C(=O)N[C@@H](CC(C)C)C(=O)N[C@@H](Cc1c[nH]cn1)C(=O)O)[C@@H](C)O)[C@@H](C)O)[C@@H](C)O` [ITAM-Y2P-ζ3] (H-DGL[pY]QGLSTATKDT[pY]DALH-OH), the Kd is 0.0698 µM and 0.065 to 0.07 µM in assay [2]; 12 ± 0.9 µM in assay [1].
As to `CC(C)C[C@H](NC(=O)[C@H](CC(N)=O)NC(=O)[C@H](CC(C)C)NC(=O)[C@H](CCC(=O)O)NC(=O)[C@H](CC(N)=O)NC(=O)[C@H](Cc1ccc(OP(=O)(O)O)cc1)NC(=O)[C@H](CC(C)C)NC(=O)[C@H](CCC(N)=O)NC(=O)[C@@H](N)CC(N)=O)C(=O)NCC(=O)N[C@@H](CCCNC(=N)N)C(=O)N[C@@H](CCCNC(=N)N)C(=O)N[C@@H](CCC(=O)O)C(=O)N[C@@H](CCC(=O)O)C(=O)N[C@@H](Cc1ccc(O)cc1)C(=O)N[C@@H](CC(=O)O)C(=O)N[C@H](C(=O)N[C@@H](CC(C)C)C(=O)N[C@@H](CC(=O)O)C(=O)O)C(C)C` [ITAM-YP-ζ1], the “Subsequent (second) binding step” value in assay [3] is reported as “no subsequent binding was observed”. Also, the kobsfast in assay [4] (100 nM tSH2, 30 μM peptide, 20 mM Tris pH 8.0, 150 mM NaCl, 5% glycerol, 5 mM β-mercaptoethanol, λex 290/λem 350 nm, 1 s transients, SD from three independent experiments) is 28.60 ± 5.84 s⁻¹. The “Slow binding step (in words)” value in assay [4] (wild-type tSH2) is listed as “no detectable slow binding”.
